# From patent publication US20250360109A1, “COMPOSITIONS AND METHODS FOR TREATING DEPRESSION IN FEMALES” (priority 2022, published 2025)
# Tests used:
# [1] = system: adult subjects with major depressive disorder (MDD); assay: Phase 2 placebo-controlled study in MDD, Clinical Global Impression-Severity (CGI-S) total score; format: in vivo, human; conditions: mITT; for Change from Baseline, CGI-S Total at Week 1, LSM Difference (95% CI) / Change from Baseline, CGI-S Total at Week 2, LSM Difference (95% CI) / Change from Baseline, CGI-S Total at Week 3, LSM Difference (95% CI) / Change from Baseline, CGI-S Total at Week 4, LSM Difference (95% CI): 20 mg/day vs Placebo; for CGI-S Total at Week 1, Mean (SD) / CGI-S Total at Week 1, Median / CGI-S Total at Week 2, Mean (SD) / CGI-S Total at Week 2, Median / CGI-S Total at Week 3, Mean (SD) / CGI-S Total at Week 3, Median / CGI-S Total at Week 4, Mean (SD) / CGI-S Total at Week 4, Median / Change from Baseline, CGI-S Total at Week 1, Mean (SD) / Change from Baseline, CGI-S Total at Week 1, Median / Change from Baseline, CGI-S Total at Week 2, Mean (SD) / Change from Baseline, CGI-S Total at Week 2, Median / Change from Baseline, CGI-S Total at Week 3, Mean (SD) / Change from Baseline, CGI-S Total at Week 3, Median / Change from Baseline, CGI-S Total at Week 4, Mean (SD) / Change from Baseline, CGI-S Total at Week 4, Median: 20 mg/day
# Protocol: (§1) A Phase 2, multicenter, double-blind, randomized, placebo-controlled study of the safety and efficacy of SP-624 in the treatment of adult subjects with major depressive disorder (MDD) as defined by the Diagnostic and Statistical Manual of Mental Disorders, Fifth Edition (DSM-5) was carried out. Following the successful completion of a Screening Phase, subjects were randomized to one of two treatment groups in a 1:1 ratio and received Compound 1 (SP-624) or placebo over a treatment period of four weeks (Treatment Group #1: SP-624 20 mg/day; Treatment Group #2: Placebo).
# (§2) Prior to initiating the 4-week treatment period, subjects completed a Screening/Baseline period of up to 28 days, during which time all screening assessments were performed, and any current depression medications discontinued. All screening assessments were completed before discontinuing any current depression medications. Subjects returned for a Baseline Visit to complete efficacy and safety assessments. During the treatment period, subjects returned to the investigative site to complete efficacy and safety assessments at the end of Weeks 1, 2, 3, and 4. After the final dose of study drug, subjects completed a follow-up period of two weeks and returned at the end of Weeks 5 and 6. Subjects may be treated with anti-depressant medications according to physician recommendations after completion of the Week 5 Visit.
# (§3) Each dose of Compound 1 was supplied as two capsules, each containing 10 mg of active pharmaceutical ingredient (API). Matching placebo capsules identical in shape and color to the active capsules were used.
# (§4) Secondary efficacy endpoints included: • Change from Baseline to Weeks 1, 2, and 3 in MADRS total score, • Change from Baseline to Weeks 1, 2, 3, and 4 in Clinical Global Impression-Severity (CGI-S) total score, • Change from Baseline to Week 5 and change from Week 4 to Week 5 in MADRS total score and CGI-S total score, • Change from Baseline to Week 2 and Week 4 in the 17-item Hamilton Depression Rating Scale (HAM D-17) total score, • Change from Baseline to Week 2 and Week 4 in the Sheehan Disability Scale (SDS), • Change from Baseline to Week 2 and Week 4 in the Quick Inventory of Depressive Symptomology-Self Report (QIDS-SR), and • Change from Baseline to Week 2 and Week 4 in the Quality of Life Enjoyment and Satisfaction Questionnaire-Short Form (Q-LES-Q-SF).
# [2] = system: adult subjects with major depressive disorder (MDD); assay: Phase 2 placebo-controlled study in MDD, Sheehan Disability Scale (SDS); format: in vivo, human; conditions: mITT; for Change from Baseline, SDS Total at Week 2, LSM Difference (95% CI) / Change from Baseline, SDS Total at Week 4, LSM Difference (95% CI): 20 mg/day vs Placebo; for Change from Baseline, SDS Total at Week 2, Mean (SD) / Change from Baseline, SDS Total at Week 2, Median / Change from Baseline, SDS Total at Week 4, Mean (SD) / Change from Baseline, SDS Total at Week 4, Median / SDS Total at Week 2, Mean (SD) / SDS Total at Week 2, Median / SDS Total at Week 4, Mean (SD) / SDS Total at Week 4, Median: 20 mg/day
# Protocol: as §1, §2, §3, §4
compound,measurement,setting,value
"COC1=CC(=O)C[C@@H](C)[C@]12Oc1c(Cl)c(-c3nnc(C)o3)cc(OC)c1C2=O [SP-624, (2S,6′R)-7-Chloro-2′,4-dimethoxy-6′-methyl-6-(5-methyl-1,3,4-oxadiazol-2-yl)-3H-spiro[1-benzofuran-2,1′-cyclohex [2]ene]-3,4′-dione]","Change from Baseline, CGI-S Total at Week 1, LSM Difference (95% CI)",[1]; Female,"−0.1 (−0.3, 0.1)"
same,"Change from Baseline, CGI-S Total at Week 2, LSM Difference (95% CI)",[1]; Female,"−0.3 (−0.5, 0.0)"
same,"Change from Baseline, CGI-S Total at Week 3, LSM Difference (95% CI)",[1]; Female,"−0.4 (−0.7, −0.1)"
same,"Change from Baseline, CGI-S Total at Week 4, LSM Difference (95% CI)",[1]; Female,"−0.5 (−0.8, −0.1)"
same,"CGI-S Total at Week 1, Mean (SD)",[1]; Female,4.0 (0.89)
same,"CGI-S Total at Week 1, Median",[1]; Female,4
same,"CGI-S Total at Week 2, Mean (SD)",[1]; Female,3.6 (0.97)
same,"CGI-S Total at Week 2, Median",[1]; Female,4
same,"CGI-S Total at Week 3, Mean (SD)",[1]; Female,3.4 (1.15)
same,"CGI-S Total at Week 3, Median",[1]; Female,4
same,"CGI-S Total at Week 4, Mean (SD)",[1]; Female,3.3 (1.20)
same,"CGI-S Total at Week 4, Median",[1]; Female,3
same,"Change from Baseline, CGI-S Total at Week 1, Mean (SD)",[1]; Female,−0.5 (0.80)
same,"Change from Baseline, CGI-S Total at Week 1, Median",[1]; Female,0
same,"Change from Baseline, CGI-S Total at Week 2, Mean (SD)",[1]; Female,−0.8 (0.96)
same,"Change from Baseline, CGI-S Total at Week 2, Median",[1]; Female,−1
same,"Change from Baseline, CGI-S Total at Week 3, Mean (SD)",[1]; Female,−1.1 (1.13)
same,"Change from Baseline, CGI-S Total at Week 3, Median",[1]; Female,−1
same,"Change from Baseline, CGI-S Total at Week 4, Mean (SD)",[1]; Female,−1.2 (1.14)
same,"Change from Baseline, CGI-S Total at Week 4, Median",[1]; Female,−1
same,"Change from Baseline, CGI-S Total at Week 1, LSM Difference (95% CI)",[1]; Male,"0.0 (−0.5, 0.4)"
same,"Change from Baseline, CGI-S Total at Week 2, LSM Difference (95% CI)",[1]; Male,"−0.1 (−0.5, 0.3)"
same,"Change from Baseline, CGI-S Total at Week 3, LSM Difference (95% CI)",[1]; Male,"0.0 (−0.4, 0.4)"
same,"Change from Baseline, CGI-S Total at Week 4, LSM Difference (95% CI)",[1]; Male,"0.2 (−0.3, 0.6)"
same,"CGI-S Total at Week 1, Mean (SD)",[1]; Male,3.9 (0.84)
same,"CGI-S Total at Week 1, Median",[1]; Male,4
same,"CGI-S Total at Week 2, Mean (SD)",[1]; Male,3.5 (1.18)
same,"CGI-S Total at Week 2, Median",[1]; Male,4
same,"CGI-S Total at Week 3, Mean (SD)",[1]; Male,3.4 (1.15)
same,"CGI-S Total at Week 3, Median",[1]; Male,4
same,"CGI-S Total at Week 4, Mean (SD)",[1]; Male,3.4 (1.27)
same,"CGI-S Total at Week 4, Median",[1]; Male,4
same,"Change from Baseline, CGI-S Total at Week 1, Mean (SD)",[1]; Male,−0.5 (0.85)
same,"Change from Baseline, CGI-S Total at Week 1, Median",[1]; Male,0
same,"Change from Baseline, CGI-S Total at Week 2, Mean (SD)",[1]; Male,−0.9 (1.16)
same,"Change from Baseline, CGI-S Total at Week 2, Median",[1]; Male,−1
same,"Change from Baseline, CGI-S Total at Week 3, Mean (SD)",[1]; Male,−1.0 (1.16)
same,"Change from Baseline, CGI-S Total at Week 3, Median",[1]; Male,−1
same,"Change from Baseline, CGI-S Total at Week 4, Mean (SD)",[1]; Male,−1.0 (1.27)
same,"Change from Baseline, CGI-S Total at Week 4, Median",[1]; Male,−1
same,"Change from Baseline, SDS Total at Week 2, LSM Difference (95% CI)",[2]; Female,"−1.7 (−3.3, −0.1)"
same,"Change from Baseline, SDS Total at Week 4, LSM Difference (95% CI)",[2]; Female,"−2.0 (−3.8, −0.2)"
same,"Change from Baseline, SDS Total at Week 2, Mean (SD)",[2]; Female,−4.7 (5.74)
same,"Change from Baseline, SDS Total at Week 2, Median",[2]; Female,−4
same,"Change from Baseline, SDS Total at Week 4, Mean (SD)",[2]; Female,−5.8 (6.70)
same,"Change from Baseline, SDS Total at Week 4, Median",[2]; Female,−5
same,"SDS Total at Week 2, Mean (SD)",[2]; Female,11.8 (6.24)
same,"SDS Total at Week 2, Median",[2]; Female,11
same,"SDS Total at Week 4, Mean (SD)",[2]; Female,11.2 (6.98)
same,"SDS Total at Week 4, Median",[2]; Female,11
same,"Change from Baseline, SDS Total at Week 2, LSM Difference (95% CI)",[2]; Male,"2.6 (0.3, 4.8)"
same,"Change from Baseline, SDS Total at Week 4, LSM Difference (95% CI)",[2]; Male,"1.3 (−1.3, 3.8)"
same,"Change from Baseline, SDS Total at Week 2, Mean (SD)",[2]; Male,−2.4 (5.27)
same,"Change from Baseline, SDS Total at Week 2, Median",[2]; Male,−2
same,"Change from Baseline, SDS Total at Week 4, Mean (SD)",[2]; Male,−5.0 (6.14)
same,"Change from Baseline, SDS Total at Week 4, Median",[2]; Male,−4
same,"SDS Total at Week 2, Mean (SD)",[2]; Male,12.8 (5.99)
same,"SDS Total at Week 2, Median",[2]; Male,13
same,"SDS Total at Week 4, Mean (SD)",[2]; Male,10.5 (6.39)
same,"SDS Total at Week 4, Median",[2]; Male,10
